# How the values were obtained:
# leukemic cells = settings: cited from earlier work
# lymphoid leukemia L-1210 = settings: tumor cells implanted intraperitoneally; cited from earlier work
# [1] = Preventive effect against the growth of Ehrlich ascites tumor (Method A); assay type: in vivo, mice (female ICR); settings: mouse, in vivo, ip; maximum dose with 100% inhibition of Ehrlich ascites tumor without causing death; unit from dose column; read-out: MTD (Maximum Tolerated Dose)
# Experimental: (§1) (A) Preventive effect against the growth of Ehrlich ascites tumor:
# (§2) 10^6 tumor cells of Ehrlich ascites carcinoma were inoculated intraperitoneally into a group of five femal mice (ICR mice, body weight: 19-23 g). A test compound was dissolved in a physiological saline solution [In the case where CCNU was employed as the test compound, said compound was suspended in a physiological saline solution containing 0.1% NIKKOL HCO-60 (trademark; a surface active agent manufactured by Nikko Chemicals Co. Ltd.)] and administered intraperioneally to the mice. The administration of the test compound was begun 24 hours after the inoculation of the tumor cells and performed once a day for 5 days. The volume of ascites in the treated mice were measured after 7 days of the experiment.
# (§3) ^a T = the average volume of ascites in the treated mice
# (§4) C = the average volume of ascites in the untreated mice (control group of
# (§5) 100% inhibition for the growth of Ehrlich ascites tumor in mice without
# (§6) causing the death of said mice)
# (§7) 100% inhibition for the growth of said ascites tumor)
# (§8) ^e Therapeutic index = MTD/MED
# (§9) *the number of mice died/the number of mice used
# [2] = tested on: Ehrlich ascites carcinoma; test: as above; assay type: in vivo, mice (female ICR); settings: for inhibition in vivo at 0.09 mg/kg: 0.09 mg/kg/day i.p.; for inhibition in vivo at 0.19 mg/kg: 0.19 mg/kg/day i.p.; for inhibition in vivo at 0.39 mg/kg: 0.39 mg/kg/day i.p.; for inhibition in vivo at 0.78 mg/kg: 0.78 mg/kg/day i.p.; for inhibition in vivo at 3.12 mg/kg: 3.12 mg/kg/day i.p.; for inhibition in vivo at 12.5 mg/kg: 12.5 mg/kg/day i.p.; for inhibition in vivo at 50 mg/kg: 50 mg/kg/day i.p.; for minimal effective dose: minimum dose with 100% inhibition of ascites tumor, unit from dose column, read-out: MED (Minimum Effective Dose); for inhibition in vivo at 1.56 mg/kg: 1.56 mg/kg/day i.p.; for inhibition in vivo at 6.25 mg/kg: 6.25 mg/kg/day i.p.
# Experimental: as §1, §2, §3, §4, §5, §6, §7, §8, §9
# Leukemia L-1210 = test: Effect on the life span of mice implanted with leukemic cells of L-1210 (Method B); assay type: in vivo, mice (male BDF1); settings: for ILS at 1.56 mg/kg / responders at 1.56 mg/kg: 1.56 mg/kg/day i.p.; for ILS at 12.5 mg/kg / responders at 12.5 mg/kg: 12.5 mg/kg/day i.p.; for ILS at 25 mg/kg / responders at 25 mg/kg: 25 mg/kg/day i.p.; for ILS at 50 mg/kg / responders at 50 mg/kg: 50 mg/kg/day i.p.
# Experimental: (B) Effect on the life span of mice implanted with leukemic cells of L-1210:
# 10^5 leukemic cells of L-1210 were inoculated intraperitoneally into a group of four or six male mice (BDF1 mice, body weight: 19-23 g). A test compound was dissolved in a physiological saline solution and administered intraperitoneally to the mice. The administration of the test compound was begun 24 hours after the inoculation of the leukemic cells and performed once a day for 5 days. The survival days of the treated mice were observed.
# ^a T = the mean survival days of the treated mice
# C = the mean survival days of the untreated mice (control group of mice)
# ^b ILS(Increase in Life Span) =-
# ^c 60day survivors = the number of mice survived for 60 days/the
# [3] = 100 mg/kg/day i.p., once a day for 5 days
# [4] = Mus musculus, Ehrlich, ip, 168 h, once a day for 5 days, read-out: Inhibition ratio
# [5] = Mus musculus, Ehrlich, ip, 168 h
# [6] = Mus musculus, L1210, ip, 120 h, once a day for 5 days, read-out: ILS (Increase in Life Span)
# [7] = Mus musculus, L1210, ip, 120 h, 6.25 mg/kg/day i.p., once a day for 5 days, read-out: ILS (Increase in Life Span)
# [8] = Mus musculus, L1210, ip, 1440 h, once a day for 5 days, read-out: 60-day survivors (mice survived for 60 days/mice used)
# [9] = Mus musculus, L1210, ip, 1440 h, once a day for 5 days, read-out: 60-day survivors (mice survived for 60 days/mice used) (converted)
# [10] = 200 mg/kg/day i.p., once a day for 5 days
# [11] = Mus musculus, Ehrlich, ip, 168 h, 25 mg/kg/day i.p., once a day for 5 days, read-out: Inhibition ratio
# [12] = Mus musculus, Ehrlich, ip, 168 h, 100 mg/kg/day i.p., once a day for 5 days, read-out: Inhibition ratio
Compound,MTD at 168 h [1] [mg/kg/day],Therapeutic index (MTD/MED) [2],"inhibition in vivo at 0.19 mg/kg [2, 4] [%]","inhibition in vivo at 0.39 mg/kg [2, 4] [%]","inhibition in vivo at 0.78 mg/kg [2, 4] [%]","inhibition in vivo at 3.12 mg/kg [2, 4] [%]","minimal effective dose [2, 5] [mg/kg/day]",ILS at 12.5 mg/kg (Leukemia L-1210; [6]) [%],ILS at 25 mg/kg (Leukemia L-1210; [6]) [%],responders at 12.5 mg/kg (Leukemia L-1210; [9]) [%],responders at 25 mg/kg (Leukemia L-1210; [9]) [%],"Toxic (number of mice died/number of mice used) [2, 10]","inhibition in vivo at 1.56 mg/kg [2, 4] [%]","inhibition in vivo at 6.25 mg/kg [2, 4] [%]","inhibition in vivo at 25 mg/kg [2, 11] [%]","inhibition in vivo at 100 mg/kg [2, 12] [%]",ILS at 50 mg/kg (Leukemia L-1210; [6]) [%],responders at 50 mg/kg (Leukemia L-1210; [9]) [%],further results
O=NN(CCCl)C(=O)NC1O[C@H](CO)[C@@H](O[C@@H]2O[C@H](CO)[C@H](O)[C@H](O)[C@H]2O)[C@H](O)[C@H]1O (stereo partly drawn) [1-(2-chloroethyl)-1-nitroso-3-(D-lactosyl)urea],–,–,–,–,–,–,–,–,–,–,–,–,–,–,–,–,–,–,anti-tumor activity against leukemic cells (leukemic cells): show anti-tumor activity
O=NN(CCCl)C(=O)NC1O[C@H](CO)[C@@H](O[C@H]2O[C@H](CO)[C@@H](O)[C@H](O)[C@H]2O)[C@H](O)[C@H]1O (stereo partly drawn) [1-(2-chloroethyl)-1-nitroso-3-(D-maltosyl)urea],–,–,–,–,–,–,–,–,–,–,–,–,–,–,–,–,–,–,anti-tumor activity against leukemic cells (leukemic cells): show anti-tumor activity
O=NN(CCCl)C(=O)NC1O[C@H](CO)[C@@H](O)[C@H](O)[C@@H]1O (stereo partly drawn) [1-(2-chloroethyl)-1-nitroso-3-(D-mannopyranosyl)urea],–,–,–,–,–,–,–,–,–,–,–,–,–,–,–,–,–,–,life span of mice implanted with L-1210 (lymphoid leukemia L-1210): increase the life span
"COCC(C)N(C(=O)N(CCCl)N=O)C1OC[C@H](O)[C@H](O)[C@H]1O (stereo partly drawn) [Compound 6, 1-(2-chloroethyl)-1-nitroso-3-(1-methyl-2-methoxy-ethyl)-3-(L-arabinopyranosyl)urea]",50,64,63.2,92.1,100,100,0.78,> 722,> 722,100,100,–,–,–,–,–,–,–,"Toxic (number of mice died/number of mice used) [2, 3]: 5/5; inhibition in vivo at 0.09 mg/kg [2, 4]: 15.8%; inhibition in vivo at 12.5 mg/kg [2, 4]: 100%; inhibition in vivo at 50 mg/kg [2, 4]: 100%; ILS at 1.56 mg/kg (Leukemia L-1210; [6]): 57.5%; ILS at 6.25 mg/kg (Leukemia L-1210; [7]): > 270%; responders at 1.56 mg/kg (Leukemia L-1210; [8]): 0%; increase in the average life span (Leukemia L-1210; daily dose 0.45 mg/kg i.p., five consecutive days): about 30%"
"COCCCN(C(=O)N(CCCl)N=O)C1OC[C@@H](O)[C@@H](O)[C@@H]1O (stereo partly drawn) [Compound 7, 1-(2-chloroethyl)-1-nitroso-3-(3-methoxy-n-propyl)-3-(D-arabinopyranosyl)urea]",100,128,23.2,73.2,100,–,0.78,> 215,> 641,25,100,5/5,100,100,100,100,> 641,100,"therapeutic index (M.T.D./M.E.D.) relative to that of GANU ([2]; Ehrlich ascites tumor, greater than that of GANU): 4 times; ILS at 3.12 mg/kg (Leukemia L-1210; Mus musculus, L1210, ip, 120 h, 3.12 mg/kg/day i.p., once a day for 5 days, read-out: ILS (Increase in Life Span)): 66.7%; responders at 3.12 mg/kg (Leukemia L-1210; Mus musculus, L1210, ip, 1440 h, 3.12 mg/kg/day i.p., once a day for 5 days, read-out: 60-day survivors (mice survived for 60 days/mice used)): 0%"
"COCC(C)N(C(=O)N(CCCl)N=O)C1O[C@H](CO)[C@H](O)[C@H](O)[C@H]1O (stereo partly drawn) [Compound 8, 1-(2-chloroethyl)-1-nitroso-3-(1-methyl-2-methoxy-ethyl)-3-(D-galactopyranosyl)urea]",100,64,–,18.4,65.8,–,1.56,158,> 496,0,50,5/5,100,100,100,100,> 722,100,–
"COCCN(C(=O)N(CCCl)N=O)C1O[C@H](CO)[C@@H](O)[C@H]1O (stereo partly drawn) [Compound 9, 1-(2-chloroethyl)-1-nitroso-3-(2-methoxyethyl)-3-(D-ribofuranosyl)urea]",50,64,20,62,100,100,0.78,> 414,> 757,50,100,–,–,–,–,–,> 757,100,"Toxic (number of mice died/number of mice used) [2, 3]: 3/5; inhibition in vivo at 12.5 mg/kg [2, 4]: 100%; inhibition in vivo at 50 mg/kg [2, 4]: 100%; ILS at 1.56 mg/kg (Leukemia L-1210; [6]): 40%; ILS at 6.25 mg/kg (Leukemia L-1210; [7]): > 243%; responders at 1.56 mg/kg (Leukemia L-1210; [8]): 0%; responders at 6.25 mg/kg (Leukemia L-1210; Mus musculus, L1210, ip, 1440 h, 6.25 mg/kg/day i.p., once a day for 5 days, read-out: 60-day survivors (mice survived for 60 days/mice used) (converted)): 25%"
"COCCCN(C(=O)N(CCCl)N=O)C1O[C@H](CO)[C@@H](O)[C@H](O)[C@H]1O (stereo partly drawn) [Compound 12, 1-(2-chloroethyl)-1-nitroso-3-(3-methoxy-n-propyl)-3-(D-glucopyranosyl)urea]",100,32,–,10,34,100,3.12,–,> 304,0,25,5/5,90,100,100,100,> 757,100,–
"O=NN(CCCl)C(=O)N[C@@H]1O[C@H](CO)[C@@H](O)[C@H](O)[C@H]1O [GANU, 1-(2-chloroethyl)-1-nitroso-3-(D-glucopyranosyl)urea, reference compound]",12.5,–,79.2,100,100,100,–,–,–,–,–,–,–,–,–,–,–,–,"Toxic (number of mice died/number of mice used) ([2]; 25 mg/kg/day i.p., once a day for 5 days): 5/5; inhibition in vivo at 0.09 mg/kg [2, 4]: 4.2%; inhibition in vivo at 1.25 mg/kg ([2]; Mus musculus, Ehrlich, ip, 168 h, 1.25 mg/kg/day i.p., once a day for 5 days, read-out: Inhibition ratio): 100%; life span of mice implanted with L-1210 (lymphoid leukemia L-1210): increase the life span"
